Patent US10688169B2 (priority 2015, dated 2020)
Entries after “also recorded” stand apart in the source; their conditions may differ.

Tested on: ZIKA rabbits
Format: in vivo
Details: rabbits n=3 immunized with CRM197-23* in alhydrogel day 0 and 14; sera before and after immunization

C[C@@H]1O[C@@H](O[C@H]2C(C(=O)O)O[C@H](OC3C(O)[C@@H](O)[C@H](C)O[C@H]3OC3C(O)[C@@H](O)[C@H](C)O[C@H]3OC3C(O)[C@@H](O)[C@H](C)O[C@H]3OCCCCCN)C(O)[C@H]2O[C@@H]2OC(CO)[C@H](O)[C@H](O)C2O)C(O)C(O)[C@H]1O (stereo partly drawn) [hexasaccharide 23*, 5-Amino-pentanyl α-L-rhamnopyranosyl-(1→4)-[P3-D-galactopyranosyl-(1→3)]-α-D-galactopyranosyluronic acid-(1→2)-α-L-rhamnopyranosyl-(1→2)-α-L-rhamnopyranosyl-(1→2)-α-L-rhamnopyranoside]
immunogenicity and cross-reactivity of antibodies by glycan microarray: specific antibodies are cross-reactive with native polysaccharide and other synthetic glycans; also recorded: immunogenic in rabbits and induces cross-reactive antibodies
